Reference: patent US8624034B2, “Fluoro-pyridinone derivatives useful as antibacterial agents” (Pfizer Inc., priority 2011, dated 2014)
pIC50: −log10 of the molar value. Values after ≈ are worked out from the molar mass of the structure shown.

Key:
PA:UC12120 = test: MIC determination, PA:UC12120 (Table 3); type: cell-based, Pseudomonas aeruginosa; settings: Pseudomonas aeruginosa, UC12120, Table 3, lower of duplicate values
Protocol: (§1) The in vitro antibacterial activity of compounds described in the Examples was evaluated by minimum inhibitory concentration (MIC) testing according to Clinical and Laboratory Standards Institute (CLSI). See: Clinical and Laboratory Standards Institute. Methods for Dilution Antimicrobial Susceptibility Tests for Bacteria that Grow Aerobically; Approved Standard-Eighth Edition. CLSI document M7-A8 [ISBN 1-56238-689-1]. Clinical and Laboratory Standards Institute, 940 West Valley Road, Suite 1400, Wayne, Pa. 19087-1898 USA, 2006; also Clinical and Laboratory Standards Institute. Performance Standards for Antimicrobial Susceptibility Testing; Twentieth Informational Supplement. CLSI document M100-S20 [ISBN 1-56238-716-2]. Clinical and Laboratory Standards Institute.
(§2) The MIC determination is a standard laboratory method for evaluating the antibacterial activity of a compound. The MIC represents the lowest drug concentration that inhibits visible growth of bacteria following overnight incubation. […] Typically, the drug concentration range is broken down into 2-fold increments (e.g. 0.06 μg/mL, 0.12 μg/mL. 0.25 μg/mL, 0.50 μg/mL, 1.0 μg/mL, etc.) and the various drug concentrations are all individually incubated overnight with approximately the same number of bacteria. The MIC is then determined by visually inspecting the drug effect at each concentration, and identifying the lowest drug concentration that has inhibited bacterial growth as compared to the drug free control. Typically, bacteria continue to grow at drug concentrations lower than the MIC and don't grow at concentrations at and above the MIC.
(§3) The MIC values described in Table 2 and 3 below were derived from assays wherein each test compound was evaluated in duplicate. In cases where the duplicate values varied by 0-2-fold, the lower of the two values was reported below. Generally speaking, if the duplicate values varied by more than 2-fold, the assay was considered non-valid and was repeated until the variation between duplicate runs was ≦2-fold. In line with the CLSI guidelines referred to above, both control organisms and reference compounds were utilized in each MIC assay to provide proper quality control. MIC values generated with these control organisms and reference compounds were required to fall within a defined range for the assay to be considered valid and be included herein. Those skilled in the art will recognize that MIC values can and do vary from experiment to experiment. Generally speaking, it should be recognized that MIC values often vary +/−2-fold from experiment to experiment. While a single MIC is reported for each compound and each microorganism, the reader should not conclude that each compound was only tested once. Several of the compounds were subjected to multiple tests. The data reported in Tables 2 and 3 is reflective of the compounds relative activity and different MICs may have been generated on these occasions in line with the guidelines described above.
In Table 3 below, column 1 corresponds to the Example number, column 2 provides the IUPAC name, columns 3-6 provide in vitro biological data generated in the same manner as in Table 2, columns 7 and 8 provide the retention times and mass spectra generated via LCMS, using the method described below. All data is not currently available for all compounds, as indicated by a blank cell in Table 3.

[1] = tested on: Acinetobacter baumannii/haemolyticus, multidrug-resistant clinical isolate (AB-3167); test: MIC determination, AB-3167; type: cell-based; settings: Table 3, lower of duplicate values
Protocol: as §1, §2, §3
(§4) The following bacterial strains were used in these MIC determinations:
2) Acinetobacter baumannii/haemolyticus: Multidrug-resistant clinical isolate labeled as AB-3167 in Tables 2 and 3;

[2] = biological target: T1, Pseudomonas aeruginosa LpxC enzyme (Pseudomonas aeruginosa, UniProt P47205); test: IC50 assay, LpxC enzyme from P. aeruginosa (PA LpxC enzyme IC50); type: biochemical; settings: Table 3; LpxC enzyme 0.1 nM, 25° C., 1 hour; read-out: PA:IC50
T1 construct: made in house; host or cells: E. coli
T1 sequence (P47205 1-303): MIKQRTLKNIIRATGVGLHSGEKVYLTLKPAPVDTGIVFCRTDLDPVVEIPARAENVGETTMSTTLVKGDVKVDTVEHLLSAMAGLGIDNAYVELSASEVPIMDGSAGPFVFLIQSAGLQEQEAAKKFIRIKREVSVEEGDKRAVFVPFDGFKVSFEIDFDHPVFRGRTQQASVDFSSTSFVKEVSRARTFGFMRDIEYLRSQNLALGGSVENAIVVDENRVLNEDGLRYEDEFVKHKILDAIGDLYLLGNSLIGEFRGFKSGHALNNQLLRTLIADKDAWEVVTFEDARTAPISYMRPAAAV
Protocol: In order to assess the compounds biological activity, selected in vitro assays were conducted on selected compounds. One of the assays measured the compounds ability to disrupt the synthesis of lipopolysaccharide, LPS, which is a component of the outer membrane of Gram-negative bacteria. Disruption of this synthesis is lethal to the bacteria. The assay determined the compound's ability to inhibit LpxC, which is the first enzyme in the biosynthetic pathway for LPS (measured as IC50). Additionally, MICs (minimal inhibitory concentrations) were determined for several bacteria. The specific protocols are described below:
A) IC50 Assay, LpxC Enzyme from P. aeruginosa (Labeled as PA LpxC Enzyme IC50):
At the end of 1 hour, 5 ul of 1 N HCl was added to stop the enzyme reaction, the plates were centrifuged, and then processed with the BioTrove Rapidfire HTMS Mass Spectrometry System. A no-enzyme control was used in calculating the IC50 values from the percent conversion values.

[3] = tested on: Escherichia coli EC-1: VOGEL, mouse virulent; test: MIC determination, EC-1; type: cell-based; settings: Escherichia coli, read-out: EC-1 (MIC), Table 3, lower of duplicate values
Protocol: as §1, §2, §3, §4
3) Escherichia coli EC-1: VOGEL, mouse virulent labeled as EC-1 in Tables 2 and 3;

| SMILES | MIC (PA:UC12120) | MIC [1] | pIC50 [2] | MIC [3] |
| --- | --- | --- | --- | --- |
| CC(CCn1cc(F)c(-c2ccc(Cl)cc2)cc1=O)(C(=O)NO)S(C)(=O)=O (stereo not drawn) [Example 107, 4-[4-(4-chlorophenyl)-5-fluoro-2-oxopyridin-1(2H)-yl]-N-hydroxy-2-methyl-2-(methylsulfonyl)butanamide] | 0.25 µg/mL (≈ 0.6 µM) | > 64 µg/mL | 9.00 | 1 µg/mL (≈ 2.4 µM) |
| CC(CCn1cc(F)c(-c2ccc(Cl)c(O)c2)cc1=O)(C(=O)NO)S(C)(=O)=O (stereo not drawn) [Example 109, 4-[4-(4-chloro-3-hydroxyphenyl)-5-fluoro-2-oxopyridin-1(2H)-yl]-N-hydroxy-2-methyl-2-(methylsulfonyl)butanamide] | 32 µg/mL (≈ 73.9 µM) | > 64 µg/mL | 8.14 | 32 µg/mL (≈ 73.9 µM) |
| CC(CCn1cc(F)c(-c2cccc(F)c2)cc1=O)(C(=O)NO)S(C)(=O)=O (stereo not drawn) [Example 116, 4-[5-fluoro-4-(3-fluorophenyl)-2-oxopyridin-1(2H)-yl]-N-hydroxy-2-methyl-2-(methylsulfonyl)butanamide] | 1 µg/mL (≈ 2.5 µM) | > 64 µg/mL | 9.00 | 4 µg/mL (≈ 9.99 µM) |
| CC(CCn1cc(F)c(-c2cccnc2)cc1=O)(C(=O)NO)S(C)(=O)=O (stereo not drawn) [Example 65, 4-(5′-fluoro-2′-oxo-3,4′-bipyridin-1′(2′H)-yl)-N-hydroxy-2-methyl-2-(methylsulfonyl)butanamide] | 32 µg/mL (≈ 83.5 µM) | > 64 µg/mL | 7.08 | > 64 µg/mL |
| COc1ccc(-c2cc(=O)n(CCC(C)(C(=O)NO)S(C)(=O)=O)cc2F)cn1 (stereo not drawn) [Example 89, 4-(5′-fluoro-6-methoxy-2′-oxo-3,4′-bipyridin-1′(2′H)-yl)-N-hydroxy-2-methyl-2-(methylsulfonyl)butanamide] | 2 µg/mL (≈ 4.84 µM) | > 64 µg/mL | 8.51 | 8 µg/mL (≈ 19.4 µM) |
| COc1ccc(OC)c(-c2cc(=O)n(CCC(C)(C(=O)NO)S(C)(=O)=O)cc2F)c1 (stereo not drawn) [Example 54, 4-[4-(2,5-dimethoxyphenyl)-5-fluoro-2-oxopyridin-1(2H)-yl]-N-hydroxy-2-methyl-2-(methylsulfonyl)butanamide] | > 64 µg/mL | > 64 µg/mL | < 7.00 | > 64 µg/mL |
| CC(=O)Nc1ccc(-c2cc(=O)n(CCC(C)(C(=O)NO)S(C)(=O)=O)cc2F)cc1 (stereo not drawn) [Example 81, 4-[4-(4-acetamidophenyl)-5-fluoro-2-oxopyridin-1(2H)-yl]-N-hydroxy-2-methyl-2-(methylsulfonyl)butanamide] | 32 µg/mL (≈ 72.8 µM) | > 64 µg/mL | 7.61 | 64 µg/mL (≈ 146 µM) |
| CNC(=O)c1ccc(-c2cc(=O)n(CCC(C)(C(=O)NO)S(C)(=O)=O)cc2F)cc1F (stereo not drawn) [Example 52, 2-fluoro-4-{5-fluoro-1-[4-(hydroxyamino)-3-methyl-3-(methylsulfonyl)-4-oxobutyl]-2-oxo-1,2-dihydropyridin-4-yl}-N-methylbenzamide] | 32 µg/mL (≈ 70 µM) | > 64 µg/mL | 8.66 | 64 µg/mL (≈ 140 µM) |
| CC(CCn1cc(F)c(-c2ccc(Cl)c(C#N)c2)cc1=O)(C(=O)NO)S(C)(=O)=O (stereo not drawn) [Example 102, 4-[4-(4-chloro-3-cyanophenyl)-5-fluoro-2-oxopyridin-1(2H)-yl]-N-hydroxy-2-methyl-2-(methylsulfonyl)butanamide] | 4 µg/mL (≈ 9.05 µM) | > 64 µg/mL | 8.68 | 4 µg/mL (≈ 9.05 µM) |
| COc1cccc(-c2cc(=O)n(CCC(C)(C(=O)NO)S(C)(=O)=O)cc2F)c1F (stereo not drawn) [Example 118, 4-[5-fluoro-4-(2-fluoro-3-methoxyphenyl)-2-oxopyridin-1(2H)-yl]-N-hydroxy-2-methyl-2-(methylsulfonyl)butanamide] | 1 µg/mL (≈ 2.32 µM) | > 64 µg/mL | 9.15 | 1 µg/mL (≈ 2.32 µM) |
| CC(C)(C#N)c1ccc(-c2cc(=O)n(CCC(C)(C(=O)NO)S(C)(=O)=O)cc2F)cc1 (stereo not drawn) [Example 60, 4-{4-[4-(1-cyano-1-methylethyl)phenyl]-5-fluoro-2-oxopyridin-1(2H)-yl}-N-hydroxy-2-methyl-2-(methylsulfonyl)butanamide] | 4 µg/mL (≈ 8.9 µM) | > 64 µg/mL | 8.41 | 32 µg/mL (≈ 71.2 µM) |
| COc1ccc(-c2cc(=O)n(CCC(C)(C(=O)NO)S(C)(=O)=O)cc2F)cc1 (stereo not drawn) [Example 59, 4-[5-fluoro-4-(4-methoxyphenyl)-2-oxopyridin-1(2H)-yl]-N-hydroxy-2-methyl-2-(methylsulfonyl)butanamide] | 1 µg/mL (≈ 2.42 µM) | > 64 µg/mL | 9.00 | 1 µg/mL (≈ 2.42 µM) |
| COCc1ccccc1-c1cc(=O)n(CCC(C)(C(=O)NO)S(C)(=O)=O)cc1F (stereo not drawn) [Example 110, 4-{5-fluoro-4-[2-(methoxymethyl)phenyl]-2-oxopyridin-1(2H)-yl}-N-hydroxy-2-methyl-2-(methylsulfonyl)butanamide] | > 64 µg/mL | > 64 µg/mL | < 7.00 | > 64 µg/mL |
| CC(CCn1cc(F)c(-c2ccccc2C#N)cc1=O)(C(=O)NO)S(C)(=O)=O (stereo not drawn) [Example 94, 4-[4-(2-cyanophenyl)-5-fluoro-2-oxopyridin-1(2H)-yl]-N-hydroxy-2-methyl-2-(methylsulfonyl)butanamide] | 32 µg/mL (≈ 78.5 µM) | 32 µg/mL (≈ 78.5 µM) | 7.49 | 8 µg/mL (≈ 19.6 µM) |
| CC(CCn1cc(F)c(-c2ccc(CO)nc2)cc1=O)(C(=O)NO)S(C)(=O)=O (stereo not drawn) [Example 85, 4-[5′-fluoro-6-(hydroxymethyl)-2′-oxo-3,4′-bipyridin-1′(2′H)-yl]-N-hydroxy-2-methyl-2-(methylsulfonyl)butanamide] | > 64 µg/mL | > 64 µg/mL | < 7.00 | > 64 µg/mL |
| CC(CCn1cc(F)c(-c2cc(F)cc(Cl)c2)cc1=O)(C(=O)NO)S(C)(=O)=O (stereo not drawn) [Example 56, 4-[4-(3-chloro-5-fluorophenyl)-5-fluoro-2-oxopyridin-1(2H)-yl]-N-hydroxy-2-methyl-2-(methylsulfonyl)butanamide] | 2 µg/mL (≈ 4.6 µM) | > 64 µg/mL | 8.70 | 8 µg/mL (≈ 18.4 µM) |
| CC(=O)Nc1cccc(-c2cc(=O)n(CCC(C)(C(=O)NO)S(C)(=O)=O)cc2F)c1 (stereo not drawn) [Example 61, 4-[4-(3-acetamidophenyl)-5-fluoro-2-oxopyridin-1(2H)-yl]-N-hydroxy-2-methyl-2-(methylsulfonyl)butanamide] | > 64 µg/mL | > 64 µg/mL | < 7.00 | > 64 µg/mL |
| CC(CCn1cc(F)c(-c2ccc(F)cc2F)cc1=O)(C(=O)NO)S(C)(=O)=O (stereo not drawn) [Example 97, 4-[4-(2,4-difluorophenyl)-5-fluoro-2-oxopyridin-1(2H)-yl]-N-hydroxy-2-methyl-2-(methylsulfonyl)butanamide] | 1 µg/mL (≈ 2.39 µM) | > 64 µg/mL | 8.92 | 4 µg/mL (≈ 9.56 µM) |
